This is an account of results in ChEMBL document CHEMBL1201862, “PubChem BioAssay data set” (2004).

Holding throughout (assay): inhibition of tumour cell growth, NCI panel, 48 h
Experiment [1] concerns A498.
Experiment [2] deals with ACHN.
Experiment [3] relates to CCRF-CEM.
Experiment [4] has as its system HCT-116.
Experiment [5] concerns HCT-15.
The test system of experiment [6] is HOP-92.
Experiment [7] relates to IGROV-1.
Experiment [8] concerns LOX IMVI.
The subject of experiment [9] is MDA-MB-435.
Experiment [10] has as its system MOLT-4.
Experiment [11] concerns NCI-H460.
The test system of experiment [12] is NCI-H522.
Experiment [13] has as its system OVCAR-3.
Experiment [14] concerns SF-268.
The test system of experiment [15] is SF-539.
Experiment [16] has as its system SK-MEL-28.
For experiment [17], the system named is SK-MEL-5.
Experiment [18] concerns SK-OV-3.
In experiment [19] the test system is SW-620.
Experiment [20] concerns U-251.

The structures appear in SMILES notation.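 Exposure lasted 48 hours, with cells grown in 96-well plates and compounds tested at five concentrations. GI50 marks 50% less growth.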 Activity calls are given as the source filed them. No stated cut-off is given here; in the data, active = GI50 up to about 1.1 µM and inactive = higher.

Turning to `O=C(Nc1ccccc1)N1CCNC1=S`, the GI50 in [1] is > 100 µM (inactive); in experiment [2], > 100 µM (inactive); in experiment [3] it was > 100 µM (inactive); in [4], > 100 µM (inactive); in experiment [5], greater than 100 µM; in [6], > 100 µM (inactive). Also, the GI50 was > 100 µM (inactive) in experiment [7]; > 100 µM (inactive) in experiment [8]; > 100 µM (inactive) in experiment [9]; > 100 µM (inactive) in experiment [10]; 57.9 µM (inactive) in [11]; > 100 µM (inactive) in experiment [12]. The GI50 in [13], in experiment [14], in experiment [15], in experiment [16], in experiment [17] and in experiment [18] was > 100 µM (inactive) throughout. The GI50 in [19] and in experiment [20] was > 100 µM (inactive) each time.
Take `O=c1c2cc(I)ccc2nc(Sc2ccc([N+](=O)[O-])cc2[N+](=O)[O-])n1Cc1ccccc1`: the GI50 in experiment [1] is 7.03 µM (inactive); in experiment [2] it was 8.73 µM (inactive); in [3] it was 0.159 µM (active); in [4], 1.26 µM (inactive); in [5], 1.61 µM; in [6], 2.33 µM (inactive). The GI50 in [7] was 2.02 µM (inactive); in [8], 1.46 µM (inactive); in experiment [9], 1.82 µM (inactive); in experiment [10], 1.39 µM (inactive); in [11], 4.24 µM (inactive); in [12], 1.04 µM (active). The GI50 is 1.9 µM (inactive) in experiment [13]; 1.6 µM (inactive) in experiment [14]; 2.25 µM (inactive) in experiment [15]; 7.14 µM (inactive) in [16]; 3.48 µM (inactive) in [17]; 8.13 µM (inactive) in experiment [18]. The GI50 in experiment [19] is 2.47 µM (inactive); in [20], 3.81 µM (inactive).
On to `CC(C)(C)OC(=O)NCCCCC(N)NC(=O)c1ccccc1` (stereo not given), for which the GI50 in experiment [1] was > 100 µM (inactive); in experiment [2], > 100 µM (inactive); in [3], > 100 µM (inactive); in [4], > 100 µM (inactive); in [5], greater than 100 µM; in experiment [6], > 100 µM (inactive). In addition, the GI50 in experiment [7], in [8], in [9], in experiment [10], in experiment [11] and in experiment [12] was > 100 µM (inactive) in each case. Besides, the GI50 in experiment [13], in experiment [14], in experiment [15], in experiment [16], in experiment [17] and in experiment [18] was > 100 µM (inactive) in each case. Further, the GI50 in experiment [19] and in experiment [20] was > 100 µM (inactive) throughout.
As for `C=C(C)[C@H]1C[C@@H]2O[C@@](O)(/C(C)=C\C(=O)/C=C(/C)C[C@H]3OC(=O)[C@@]24O[C@H]34)[C@@H]1O`, the GI50 in [1] was > 100 µM (inactive); in [2] it was > 100 µM (inactive); in experiment [3] it was > 100 µM (inactive); in experiment [4] it was > 100 µM (inactive); in experiment [5], greater than 100 µM; in experiment [6], > 100 µM (inactive). The GI50 in experiment [7], in experiment [8], in experiment [9], in experiment [10], in experiment [11] and in [12] was > 100 µM (inactive) in each case. In addition, the GI50 in [13], in [14], in [15], in [16], in experiment [17] and in experiment [18] was > 100 µM (inactive) throughout. For the same compound, the GI50 in experiment [19] and in experiment [20] was > 100 µM (inactive) in each case.
As for `CN(CCNC(=O)c1c[nH]c2c1ccc1ccccc12)CCNC(=O)c1c[nH]c2c1ccc1ccccc12`, the GI50 is 1.53 µM (inactive) in experiment [1]; 1.86 µM (inactive) in experiment [2]; 1.73 µM (inactive) in experiment [3]; 1.76 µM (inactive) in experiment [4]; 1.92 µM in experiment [5]; 1.75 µM (inactive) in [6]. For the same compound, the GI50 in experiment [7] is 1.41 µM (inactive); in [8] it was 1.64 µM (inactive); in [9], 1.84 µM (inactive); in [10] it was 2.01 µM (inactive); in experiment [11], 1.96 µM (inactive); in [12] it was 1.89 µM (inactive). Moreover, the GI50 in experiment [13] was 4.29 µM (inactive); in experiment [14], 3.1 µM (inactive); in experiment [15] it was 1.15 µM (inactive); in experiment [16] it was 2 µM (inactive); in [17], 7.29 µM (inactive); in experiment [18], 4.23 µM (inactive). The GI50 was 1.91 µM (inactive) in experiment [19] and 2 µM (inactive) in [20].
`CCN(CC)CCNC(=O)c1ccc(I)cc1`: the GI50 is 44.3 µM (inactive) in experiment [1]; > 100 µM (inactive) in experiment [2]; 89.5 µM (inactive) in experiment [3]; > 100 µM (inactive) in experiment [4]; greater than 100 µM in experiment [5]; > 100 µM (inactive) in experiment [6]. Further, the GI50 in experiment [7], in experiment [8], in experiment [9], in experiment [10], in experiment [11] and in experiment [12] was > 100 µM (inactive) throughout. For the same compound, the GI50 in experiment [13] was > 100 µM (inactive); in experiment [14] it was > 100 µM (inactive); in experiment [15], > 100 µM (inactive); in experiment [16], > 100 µM (inactive); in [17], 28.4 µM (inactive); in experiment [18], > 100 µM (inactive). In addition, the GI50 in experiment [19] and in experiment [20] was > 100 µM (inactive) each time.
Turning to `CN1CCc2[nH]nc(-c3n[nH]c4c3CN(C)CC4)c2C1`, the GI50 is > 100 µM (inactive) in experiment [1]; > 100 µM (inactive) in experiment [2]; 72.8 µM (inactive) in [3]; > 100 µM (inactive) in [4]; greater than 100 µM in [5]; > 100 µM (inactive) in experiment [6]. Also, the GI50 in experiment [7], in experiment [8], in experiment [9], in [10], in [11] and in experiment [12] was > 100 µM (inactive) in each case. Besides, the GI50 is > 100 µM (inactive) in experiment [13]; > 100 µM (inactive) in experiment [14]; > 100 µM (inactive) in experiment [15]; 44.9 µM (inactive) in [16]; > 100 µM (inactive) in experiment [17]; > 100 µM (inactive) in experiment [18]. For the same compound, the GI50 in experiment [19] and in experiment [20] was > 100 µM (inactive) in each case.
For `O=C1c2cc3c(cc2NC(c2ccccc2F)C1O)OCO3` (stereo not given), the GI50 in experiment [1] is 13.3 µM (inactive); in experiment [2], 31.9 µM (inactive); in experiment [3], 14 µM (inactive); in experiment [4], 3.97 µM (inactive); in experiment [5], 5.45 µM; in experiment [6] it was 33.6 µM (inactive). Moreover, the GI50 is 13.5 µM (inactive) in experiment [7]; 17.9 µM (inactive) in [8]; 3.08 µM (inactive) in [9]; 19.5 µM (inactive) in experiment [10]; 9.46 µM (inactive) in [11]; 10.5 µM (inactive) in experiment [12]. In addition, the GI50 is 20.5 µM (inactive) in experiment [13]; 19.4 µM (inactive) in [14]; 12.2 µM (inactive) in [15]; 18.5 µM (inactive) in [16]; 4.86 µM (inactive) in experiment [17]; 17.7 µM (inactive) in [18]. Further, the results for the GI50 in experiment [19] and in experiment [20] were 5.19 µM (inactive) and 14.9 µM (inactive), respectively.
Regarding `CC(=O)Nc1ccc(-c2nc3cc(Cl)ccc3o2)cc1`, the GI50 in experiment [1] is > 50 µM (inactive); in [2], > 50 µM (inactive); in experiment [3], > 50 µM (inactive); in experiment [4], > 50 µM (inactive); in experiment [5], greater than 50 µM; in experiment [6], > 50 µM (inactive). Also, the GI50 in [7], in experiment [8], in experiment [9], in experiment [10], in experiment [11] and in experiment [12] was > 50 µM (inactive) each time. Moreover, the GI50 in experiment [13] is > 50 µM (inactive); in experiment [14] it was > 50 µM (inactive); in experiment [15] it was > 50 µM (inactive); in [16], > 50 µM (inactive); in [17], 20.4 µM (inactive); in [18], > 50 µM (inactive). Also, the GI50 in experiment [19] was > 50 µM (inactive); in experiment [20] it was 45.7 µM (inactive).
On to `O=C(c1c2c(cc3c1CC1(Cc4cc5c(cc4C1)CCCC5)C3)CCCC2)C(Br)Br`, for which the GI50 is 29.7 µM (inactive) in experiment [1]; 13.4 µM (inactive) in experiment [2]; 1.6 µM (inactive) in experiment [3]; 14.9 µM (inactive) in experiment [4]; 16.1 µM in [5]; 13.4 µM (inactive) in experiment [6]. For the same compound, the GI50 in experiment [7] is 9.02 µM (inactive); in experiment [8], 1.79 µM (inactive); in [9], 14 µM (inactive); in experiment [10], 1.85 µM (inactive); in [11], 40.2 µM (inactive); in experiment [12] it was 1.65 µM (inactive). The GI50 in experiment [13] was 18.7 µM (inactive); in experiment [14], 14.6 µM (inactive); in experiment [15], 20.2 µM (inactive); in experiment [16] it was 16.5 µM (inactive); in experiment [17] it was 5.24 µM (inactive); in experiment [18], 21.4 µM (inactive). Also, the GI50 in experiment [19] is 5.48 µM (inactive); in [20], 16.2 µM (inactive).
